Test: refractive index (other wavelength) (dimensionless); xn = mol fraction of the nth substance listed
Details: 293.15 K, 95.99 kPa, Liquid, Standard Abbe refractometry

OCCOCCOCCO [triethylene glycol] + O
refractive index
Details	Wavelength=589.3 nm	Wavelength=632.8 nm	Wavelength=644 nm	Wavelength=706.5 nm
x2 = 0	–	1.45455	1.4542	1.45248
x2 = 0.1056	–	1.45311	1.45275	1.45102
x2 = 0.2069	–	1.45131	1.45095	1.44922
x2 = 0.3104	–	1.44796	1.4476	1.44588
x2 = 0.4844	–	1.44426	1.44391	1.44221
x2 = 0.5016	–	1.44326	1.44291	1.44121
x2 = 0.5952	–	1.43663	1.43669	1.4346
x2 = 0.6016	–	1.4367	1.43635	1.43464
x2 = 0.6788	–	1.4301	1.42981	1.42813
x2 = 0.7835	–	1.42078	1.42043	–
x2 = 0.8184	–	1.41555	1.4152	–
x2 = 0.8473	–	1.40964	1.4093	–
x2 = 0.8719	–	1.40238	1.40204	–
x2 = 0.8926	–	1.3943	1.39396	–
x2 = 0.9106	1.39038	1.38899	1.38865	–
x2 = 0.9254	1.37998	1.3786	1.37827	–
x2 = 0.9303	1.38114	1.37976	1.37942	–
x2 = 0.9391	1.37731	1.37592	1.37559	–
x2 = 0.951	1.37039	1.36903	1.36871	–
x2 = 0.9599	1.36431	1.36296	1.36264	–
x2 = 0.9708	1.35652	1.3552	1.35488	–
x2 = 0.979	1.35142	1.35011	1.3498	–
x2 = 0.9867	1.34526	1.34398	1.34367	–
x2 = 0.9936	1.33902	1.33774	1.33744	–

Source: the NIST ThermoML archive (doi:10.1016/j.fluid.2015.07.030)
